Among the data in ChEMBL document CHEMBL1153709, “NSAID-derived gamma-secretase modulators. Part III: Membrane anchoring” (Bioorg Med Chem Lett, 2009) are IC50, EC50 and Activity values, retold here.

Some results are limits rather than exact numbers.

What all share (format): cell-based
Series [1] concerns the target Gamma-secretase. In words: Modulation of gamma-secretase in human H4 cells assessed as inhibition of in amyloid beta42 production by LPECL assay.
Series [2] addresses Gamma-secretase. In words: Modulation of gamma-secretase in human H4 cells assessed as inhibition of in amyloid beta40 production by LPECL assay.
Series [3] deals with Gamma-secretase. In words: Modulation of gamma-secretase in human H4 cells assessed as increase in amyloid beta38 production by LPECL assay.
Series [4] has as its target Gamma-secretase (Homo sapiens) (UniProt Q96BI3+Q9NZ42+Q8WW43+P49768+Q92542+P49810). Description: Modulation of gamma-secretase in human H4 cells assessed as reduction of in amyloid beta42 production at 40 uM by LPECL assay. The arrangement: scale not given: the % may be the effect or the level left.
The next series deals with H4. Description: Cytotoxicity against human H4 cells by MTS assay. For orientation: Tetrazolium assays rely on reduction of a dye to a coloured formazan, in cell work by metabolically active cells.

For the molecule `CN(C)c1ccc(/N=N/c2ccc(S(=O)(=O)n3c4ccccc4c4ccc(OCC(=O)O)cc43)cc2)cc1`, the IC50 on Gamma-secretase [1] is 9 µM; at Gamma-secretase [2] it was greater than 80 µM. On Gamma-secretase [3], the EC50 was found to be 7.6 µM.

Turning to `CCCCCCCCCCO/N=C(/c1ccc(Cl)cc1)c1ccc(OC(C)(C)C(=O)O)cc1`, in series [4], the Activity is 60%. In addition, the IC50 at Gamma-secretase [1] is 36.1 µM; on Gamma-secretase [2], greater than 80 µM. For the same molecule, at Gamma-secretase [3], the EC50 was greater than 80 µM.

For `CCCCCCCCCCCCCCCCCCn1c2ccccc2c2ccc(OCC(=O)O)cc21`, the IC50 on Gamma-secretase [1] was 26 µM; at Gamma-secretase [2] it was greater than 80 µM. Moreover, at Gamma-secretase [3], the concentration for a half-maximal effect (EC50) was 1.4 µM.

For `CC(C)(Oc1ccc(/C(=N\OCCCCCCCCCCO/N=C(/c2ccc(Cl)cc2)c2ccc(OC(C)(C)C(=O)O)cc2)c2ccc(Cl)cc2)cc1)C(=O)O`, the IC50 is greater than 32.6 µM at Gamma-secretase [1] and greater than 40 µM on Gamma-secretase [2]. Further, the EC50 at Gamma-secretase [3] is greater than 40 µM. In the series on H4, this molecule displayed an Activity of 80 µM.

With `CCCCCCCCCCCO/N=C(/c1ccc(Cl)cc1)c1ccc(OC(C)(C)C(=O)O)cc1`, the IC50 on Gamma-secretase [1] and at Gamma-secretase [2] was greater than 40 µM each time. Also, on Gamma-secretase [3], the EC50 was greater than 40 µM.

In the case of `O=C(O)COc1ccc2c3ccccc3n(Cc3cccc(C4(C(F)(F)F)N=N4)c3)c2c1`, the IC50 on Gamma-secretase [1] and on Gamma-secretase [2] was greater than 80 µM in each case. For the same molecule, the EC50 on Gamma-secretase [3] is greater than 80 µM.

Turning to `CC(C)(Oc1ccc(/C(=N\OCCCCCCCCO/N=C(/c2ccc(Cl)cc2)c2ccc(OC(C)(C)C(=O)O)cc2)c2ccc(Cl)cc2)cc1)C(=O)O`, the IC50 on Gamma-secretase [1] was 23.7 µM; at Gamma-secretase [2] it was 37.3 µM. On Gamma-secretase [3], the EC50 was 47.6 µM.

For the molecule `CCCCCCCC/C=C/CCCCCCCC(=O)n1c2ccccc2c2ccc(OCC(=O)O)cc21`, the IC50 at Gamma-secretase [1] was 13 µM; at Gamma-secretase [2], greater than 40 µM. For the same molecule, the EC50 on Gamma-secretase [3] was 9.3 µM.

Take `CCCCCCCCO/N=C(/c1ccc(Cl)cc1)c1ccc(OC(C)(C)C(=O)O)cc1`: the Activity came to 60% in series [4] and 80 µM in the series on H4. Besides, the IC50 on Gamma-secretase [1] came out at 36.2 µM; at Gamma-secretase [2] it was 47.6 µM. For the same molecule, on Gamma-secretase [3], the EC50 was found to be 16.1 µM.

`CN(C)c1cccc2c(S(=O)(=O)n3c4ccccc4c4ccc(OCC(=O)O)cc43)cccc12`: the IC50 on Gamma-secretase [1] and on Gamma-secretase [2] was greater than 40 µM throughout. Besides, the EC50 on Gamma-secretase [3] is greater than 40 µM. The same molecule came in with an Activity in the series with H4 of 80 µM.

Consider `CCCCCCCCCCCCO/N=C(/c1ccc(Cl)cc1)c1ccc(OC(C)(C)C(=O)O)cc1`, for which the IC50 at Gamma-secretase [1] and at Gamma-secretase [2] was greater than 40 µM in each case. For the same molecule, the EC50 on Gamma-secretase [3] was greater than 40 µM. For the same molecule, the Activity in the series with H4 was determined as 80 µM.

On to `CCCCCCCC/C=C\CCCCCCCC(=O)n1c2ccccc2c2ccc(OCC(=O)O)cc21`, for which the IC50 on Gamma-secretase [1] was 13.1 µM; on Gamma-secretase [2], greater than 40 µM. For the same molecule, the EC50 on Gamma-secretase [3] came out at 9.2 µM.

For `CC(C)(Oc1ccc(/C(=N\OCCCCCCCCCO/N=C(/c2ccc(Cl)cc2)c2ccc(OC(C)(C)C(=O)O)cc2)c2ccc(Cl)cc2)cc1)C(=O)O`, the IC50 on Gamma-secretase [1] and at Gamma-secretase [2] was greater than 40 µM throughout. Besides, the EC50 on Gamma-secretase [3] is greater than 40 µM. The molecule further showed an Activity in the series on H4 of 80 µM.

As to `N#Cc1ccccc1-c1ccc(Cn2c3ccccc3c3ccc(OCC(=O)O)cc32)cc1`, the IC50 on Gamma-secretase [1] and on Gamma-secretase [2] was greater than 80 µM throughout. Also, the EC50 at Gamma-secretase [3] was greater than 80 µM.

Take `CC(C)(Oc1ccc(C(/N=N/c2ccc([N+](=O)[O-])cc2[N+](=O)[O-])c2ccc(Cl)cc2)cc1)C(=O)O` (stereo not given): the IC50 was 17 µM at Gamma-secretase [1] and 37.3 µM on Gamma-secretase [2]. Further, the EC50 at Gamma-secretase [3] turned out to be 47.6 µM. In the series on H4, this molecule came in with an Activity of 80 µM.

For `CCCCCCCCCC(=O)n1c2ccccc2c2ccc(OCC(=O)O)cc21`, the IC50 is 22.4 µM at Gamma-secretase [1] and greater than 40 µM on Gamma-secretase [2]. The EC50 at Gamma-secretase [3] stood at 12.6 µM.

For the molecule `CCCCCCCCCO/N=C(/c1ccc(Cl)cc1)c1ccc(OC(C)(C)C(=O)O)cc1`, the IC50 at Gamma-secretase [1] and at Gamma-secretase [2] was greater than 40 µM throughout. On Gamma-secretase [3], the EC50 was greater than 40 µM.

For the molecule `CCCCCCCCCCCCCCO/N=C(/c1ccc(Cl)cc1)c1ccc(OC(C)(C)C(=O)O)cc1`, the IC50 on Gamma-secretase [1] and on Gamma-secretase [2] was greater than 80 µM throughout. For the same molecule, on Gamma-secretase [3], the EC50 is greater than 80 µM.

Consider `CCCCCCCCCCCCCCCCO/N=C(/c1ccc(Cl)cc1)c1ccc(OC(C)(C)C(=O)O)cc1`, for which the IC50 on Gamma-secretase [1] and on Gamma-secretase [2] was greater than 80 µM in each case. In addition, the EC50 on Gamma-secretase [3] is greater than 80 µM.

By IC50 is commonly meant the concentration at which inhibition is half-maximal. By EC50 is commonly meant the concentration giving half of the maximal effect.
